The results in this text go back to patent publication US7291612B2, “Immunomodulatory compounds” (Active Biotech A.B., priority 2002, dated 2007).

Read-outs that look alike come from different tables or passages of the source.

In this assay the target is T1, CD80-CD28 interaction (Homo sapiens, UniProt P33681).
T1 construct: mouse Fab fragment (fusion partner)
T1 sequence (P33681 35-242 limits assumed): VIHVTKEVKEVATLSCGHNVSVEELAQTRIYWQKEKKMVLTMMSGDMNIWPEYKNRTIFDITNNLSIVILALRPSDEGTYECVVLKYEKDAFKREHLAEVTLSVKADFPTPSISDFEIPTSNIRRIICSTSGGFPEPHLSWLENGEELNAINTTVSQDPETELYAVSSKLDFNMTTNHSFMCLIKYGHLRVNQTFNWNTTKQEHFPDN
Description: cell free Homogenous Time Resolved Fluorescence (HTRF) assay, inhibition of the CD80-CD28 interaction. The assay is classed as binding. As for the experimental part: The examples described above were tested in a cell free Homogenous Time Resolved Fluorescence (HTRF) assay to determine their activity as inhibitors of the CD80-CD28 interaction.
In the assay, europium and allophycocyanin (APC) are associated with CD28 and CD80 indirectly (through antibody linkers) to form a complex, which brings the europium and APC into close proximity to generate a signal. The complex comprises the following six proteins: fluorescent label 1, linker antibody 1, CD28 fusion protein, CD80 fusion protein, linker antibody 2, and fluorescent label 2. The table below describes these reagents in greater detail.
On formation of the complex, europium and APC are brought into proximity and a signal is generated.
Non-specific interaction was measured by substituting a mouse Fab fragment (C215) for the CD80 mouse Fab fragment fusion protein (1.9 μg/ml). The assay was carried out in black 384 well plates in a final volume of 30 μl. Assay buffer: 50 mM Tris-HCl, 150 mM NaCl pH7.8, containing 0.1% BSA (w/v) added just prior to use.
Compounds were added to the above reagents in a concentration series ranging between 100 μM-1.7 nM. The reaction was incubated for 4 hours at room temperature. Dual measurements were made using a Wallac Victor 1420 Multilabel Counter. First measurement: excitation 340 nm, emission 665 nm, delay 50 μs, window time 200 μs. second measurement: excitation 340 nm, emission 615 nm, delay 50 μs, window time 200 μs. Counts were automatically corrected for fluorescence crossover, quenching and background.

[1] abbreviates: 4 hours at room temperature, read-out: Activity (EC50 in summary form).

As usually defined, the EC50 is the concentration giving half of the maximal effect. Regarding `CN(CCCNC(=O)c1ccc(-n2nc3c4cccc(F)c4[nH]cc-3c2=O)cc1)c1ccccc1` [Example 106], the EC50 under setting [1] was under 1000 nM.

Take `CC(=O)N1CCC(C(=O)Nc2ccc(-n3nc4c5cccc(F)c5[nH]cc-4c3=O)cc2)CC1` [Example 20]: the EC50 under setting [1] lay in the range of 1000 to 10000 nM.

Turning to `CCCNC(=O)Nc1ccc(-n2nc3c4ccccc4[nH]cc-3c2=O)cc1` [Example 159], under setting [1], the EC50 is under 1000 nM.

In the case of `O=C(NC1CCN(Cc2ccccc2)CC1)c1ccc(-n2nc3c4cccc(F)c4[nH]cc-3c2=O)cc1` [Example 116], the half-maximal effective concentration (EC50) under setting [1] is under 1000 nM.

With `O=C(NCCc1ccccn1)c1ccc(-n2nc3c4cccc(F)c4[nH]cc-3c2=O)cc1` [Example 127], the half-maximal effective concentration (EC50) under setting [1] was over 10000 nM.

In the case of `CN1C(C)(C)CC(NCC(=O)Nc2ccc(-n3nc4c5cccc(F)c5[nH]cc-4c3=O)cc2)CC1(C)C` [Example 33], under setting [1], the concentration for a half-maximal effect (EC50) is under 1000 nM.

`O=C(NCCCCN1CCCC1)c1ccc(-n2nc3c4cccc(F)c4[nH]c(C4CC4)c-3c2=O)cc1` [Example 130]: the concentration giving a half-maximal response (EC50) under setting [1] was under 1000 nM.

As to `N[C@H]1CC[C@H](NC(=O)c2ccc(-n3nc4c5cccc(F)c5[nH]cc-4c3=O)cc2)CC1` [Example 79], the EC50 under setting [1] is under 1000 nM.

`O=C(NCCCn1ccnc1)c1ccc(-n2nc3c4cccc(F)c4[nH]cc-3c2=O)cc1` [Example 122]: the EC50 under setting [1] was under 1000 nM.

As to `CCSCCNC(=O)c1ccc(-n2nc3c4cccc(F)c4[nH]cc-3c2=O)cc1` [Example 120], the 50% effective concentration (EC50) under setting [1] is under 1000 nM.

On to `CN(C)CCCNC(=O)c1ccc(-n2nc3c4ccccc4[nH]cc-3c2=O)cc1` [Example 86], for which, under setting [1], the 50% effective concentration (EC50) was under 1000 nM.

Take `Cn1cccc1C(=O)Nc1ccc(-n2nc3c4cccc(F)c4[nH]cc-3c2=O)cc1` [Example 3, 1-Methyl-1H-pyrrole-2-carboxylic acid [4-(6-fluoro-3-oxo-3,5-dihydro-pyrazolo[4,3-c]quinolin-2-yl)-phenyl]-amide]: under setting [1], the half-maximal effective concentration (EC50) was over 10000 nM.

With `CSCCCNC(=O)c1ccc(-n2nc3c4cccc(F)c4[nH]cc-3c2=O)cc1` [Example 128], the concentration for a half-maximal effect (EC50) under setting [1] was 1000 to 10000 nM.

Turning to `CN1CCN(C(=O)c2ccc(-n3nc4c5cccc(F)c5[nH]cc-4c3=O)cc2)CC1` [Example 111], the concentration giving a half-maximal response (EC50) under setting [1] was in the range of 1000 to 10000 nM.

As for `O=C(NCCCCN1CCCC1)c1ccc(-n2nc3c4cccc(F)c4scc-3c2=O)cc1` [Example 171, N-(pyrrolidin-1-yl-butyl)-4-(6-fluoro-3-oxothiochromeno[4,3-c]pyrazol-2(3H)-yl)benzamide], the concentration giving a half-maximal response (EC50) under setting [1] was under 1000 nM.

Turning to `CCC(CC)C(=O)Nc1ccc(-n2nc3c4cccc(F)c4[nH]cc-3c2=O)cc1` [Example 18], the EC50 under setting [1] was under 1000 nM.

On to `COCCNC(=O)c1ccc(-n2nc3c4cccc(F)c4[nH]cc-3c2=O)cc1` [Example 70], for which the concentration for a half-maximal effect (EC50) under setting [1] was under 1000 nM.

`CN(C)CCCNC(=O)c1ccc(-n2nc3c4cccc(F)c4scc-3c2=O)cc1` [Example 169, N-[3-(dimethylamino)propyl]-4-(6-fluoro-3-oxothiochromeno[4,3-c]pyrazol-2(3H)-yl)benzamide]: the half-maximal effective concentration (EC50) under setting [1] lay in the range of 1000 to 10000 nM.

Consider `CCCCC(CC)C(=O)Nc1ccc(-n2nc3c4cccc(F)c4[nH]cc-3c2=O)cc1` (stereo not drawn) [Example 17], for which, under setting [1], the concentration giving a half-maximal response (EC50) is over 10000 nM.

`CCC(C)C(=O)Nc1ccc(-n2nc3c4ccccc4[nH]cc-3c2=O)cc1` (stereo not drawn) [Example 47]: the 50% effective concentration (EC50) under setting [1] is 1000 to 10000 nM.

As to `CC(C)C(C)NC(=S)Nc1ccc(-n2nc3c4cccc(F)c4[nH]cc-3c2=O)cc1` (stereo not drawn) [Example 157], the 50% effective concentration (EC50) under setting [1] lay in the range of 1000 to 10000 nM.

In the case of `CN(C)CCCN(C)C(=O)c1ccc(-n2nc3c4cccc(F)c4[nH]cc-3c2=O)cc1` [Example 80], the 50% effective concentration (EC50) under setting [1] is under 1000 nM.

With `O=C(NCCCN1CCN(Cc2c(F)cccc2Cl)CC1)c1ccc(-n2nc3c4ccccc4[nH]cc-3c2=O)cc1` [Example 92], the EC50 under setting [1] was 1000 to 10000 nM.

In the case of `O=C(NCCCN1CCCC1)c1ccc(-n2nc3c4cccc(F)c4[nH]cc-3c2=O)cc1` [Example 83], the EC50 was under 1000 nM under setting [1] and 90 nM (read-out: EC50).

For the compound `O=C(Cc1c(Cl)cccc1Cl)Nc1ccc(-n2nc3c4cccc(F)c4[nH]cc-3c2=O)cc1` [Example 21], the EC50 is 1000 to 10000 nM under setting [1] and 1900 nM (read-out: EC50).

As for `COC(=O)C(=O)Nc1ccc(-n2nc3c4cccc(F)c4[nH]cc-3c2=O)cc1` [Example 12], the half-maximal effective concentration (EC50) under setting [1] lay within 1000 to 10000 nM.

As for `COC(=O)Nc1ccc(-n2nc3c4ccccc4[nH]c(C4CC4)c-3c2=O)cc1` [Example 153], the EC50 under setting [1] fell in the range of 1000 to 10000 nM.

With `CCC(C)C(=O)Nc1ccc(-n2nc3c4cccc(F)c4[nH]cc-3c2=O)cc1` (stereo not drawn) [Example 1, N-[4-(6-Fluoro-3-oxo-3,5-dihydropyrazolo[4,3-c]quinolin-2-yl)-phenyl]-2-methyl-butyramide], the concentration for a half-maximal effect (EC50) under setting [1] is under 1000 nM.

As to `COCCNC(=O)c1cccc(-n2nc3c4cccc(F)c4[nH]cc-3c2=O)c1` [Example 59], the EC50 under setting [1] fell in the range of 1000 to 10000 nM.

Regarding `CC(C)(C)C(=O)Nc1ccc(-n2nc3c4cccc(F)c4[nH]cc-3c2=O)cc1` [Example 7, N-[4-(6-Fluoro-3-oxo-3,5-dihydro-pyrazolo[4,3-c]quinolin-2-yl)-phenyl]-2,2-dimethyl-propionamide], the EC50 under setting [1] fell in the range of 1000 to 10000 nM.

For `CCN(CC)CCCCNC(=O)c1ccc(-n2nc3c4cccc(F)c4[nH]c(C4CC4)c-3c2=O)cc1` [Example 135], the EC50 under setting [1] was under 1000 nM.

With `O=C(Nc1ccccc1)Nc1ccc(-n2nc3c4cccc(F)c4[nH]cc-3c2=O)cc1` [Example 147], the concentration giving a half-maximal response (EC50) under setting [1] lay in the range of 1000 to 10000 nM.

In the case of `CCCNC(=O)Nc1ccc(-n2nc3c4cccc(F)c4[nH]cc-3c2=O)cc1` [Example 145], the EC50 under setting [1] was under 1000 nM.

Take `O=C(Nc1ccc(-n2nc3c4cccc(F)c4[nH]cc-3c2=O)cc1)c1ccco1` [Example 10]: under setting [1], the EC50 was over 10000 nM.

`CN(C)CCCNC(=O)c1ccc(-n2nc3c4ccccc4[nH]c(C4CC4)c-3c2=O)cc1` [Example 65, N-(3-Dimethylaminopropyl)-4-(4-cyclopropyl-3-oxo-3,5-dihydro-pyrazolo[4,3-c]quinolin-2-yl]-benzamide]: the concentration for a half-maximal effect (EC50) under setting [1] was under 1000 nM.

In the case of `O=C(NCCC1=CCCCC1)c1ccc(-n2nc3c4cccc(F)c4[nH]cc-3c2=O)cc1` [Example 75], the EC50 under setting [1] fell in the range of 1000 to 10000 nM.

On to `O=C(NC1CCN(Cc2ccccc2)CC1)c1ccc(-n2nc3c4cccc(F)c4[nH]c(C4CC4)c-3c2=O)cc1` [Example 125], for which the EC50 under setting [1] was under 1000 nM.

For `O=C(NCCCCN1CCCC1)c1cccc(-n2nc3c4cccc(F)c4[nH]cc-3c2=O)c1` [Example 57], the EC50 under setting [1] fell in the range of 1000 to 10000 nM.

Consider `O=C(NCCN1CCOCC1)c1ccc(-n2nc3c4cccc(F)c4[nH]cc-3c2=O)cc1` [Example 113], for which, under setting [1], the EC50 was under 1000 nM.

Take `CC1CCCCN1CCCNC(=O)c1ccc(-n2nc3c4cccc(F)c4[nH]cc-3c2=O)cc1Cl` (stereo not drawn) [Example 108]: the 50% effective concentration (EC50) under setting [1] fell in the range of 1000 to 10000 nM.

Regarding `CC(C)C(=O)Nc1ccc(-n2nc3c4cccc(F)c4[nH]cc-3c2=O)cc1` [Example 24], the concentration for a half-maximal effect (EC50) under setting [1] was under 1000 nM.

As to `O=C(NCCCCN1CCCC1)c1ccc(-n2nc3c4ccccc4[nH]c(C4CC4)c-3c2=O)cc1` [Example 104], under setting [1], the EC50 is under 1000 nM.

For the compound `O=C(CNCCCn1ccnc1)Nc1ccc(-n2nc3c4cccc(F)c4[nH]cc-3c2=O)cc1` [Example 40], under setting [1], the concentration giving a half-maximal response (EC50) was in the range of 1000 to 10000 nM.

On to `CC(N)C(=O)Nc1ccc(-n2nc3c4ccccc4[nH]cc-3c2=O)cc1` (stereo not drawn) [Example 43], for which the concentration for a half-maximal effect (EC50) under setting [1] was in the range of 1000 to 10000 nM.

For `CCN(CC)CCCCNC(=O)c1ccc(-n2nc3c4ccccc4[nH]cc-3c2=O)cc1` [Example 88], the EC50 under setting [1] lay in the range of 1000 to 10000 nM.

Consider `CN(C)CCCNC(=O)c1ccc(-n2nc3c4cccc(F)c4[nH]cc-3c2=O)c(Cl)c1` [Example 103], for which the EC50 under setting [1] is 1000 to 10000 nM.

Take `COC(=O)CCCCCCCCC(=O)Nc1ccc(-n2nc3c4cccc(F)c4[nH]cc-3c2=O)cc1` [Example 23]: under setting [1], the half-maximal effective concentration (EC50) was in the range of 1000 to 10000 nM.

As to `CN(C)c1ccc(CNC(=O)c2ccc(-n3nc4c5cccc(F)c5[nH]cc-4c3=O)cc2)cc1` [Example 109], the half-maximal effective concentration (EC50) under setting [1] was under 1000 nM.

Regarding `O=C(Nc1ccc(-n2nc3c4cccc(F)c4[nH]cc-3c2=O)cc1)OC1CCN(Cc2ccccc2)CC1` [Example 155], the half-maximal effective concentration (EC50) under setting [1] lay in the range of 1000 to 10000 nM.

As for `O=C(c1ccc(-n2nc3c4cccc(F)c4[nH]cc-3c2=O)cc1)N1CCCCC1` [Example 67], the EC50 under setting [1] is 1000 to 10000 nM.

Consider `CN(C)CCCNC(=O)c1ccc(-n2nc3c4cccc(F)c4[nH]c(C4CC4)c-3c2=O)cc1` [Example 132], for which the EC50 under setting [1] is under 1000 nM.

Consider `CN(C)c1ccc(CNCC(=O)Nc2ccc(-n3nc4c5cccc(F)c5[nH]cc-4c3=O)cc2)cc1` [Example 32], for which the EC50 under setting [1] was over 10000 nM.

Turning to `CCCC(CCC)C(=O)Nc1ccc(-n2nc3c4cccc(F)c4[nH]cc-3c2=O)cc1` [Example 5, 2-Propyl-pentanoic acid [4-(6-fluoro-3-oxo-3,5-dihydro-pyrazolo[4,3-c]quinolin-2-yl)-phenyl]-amide], under setting [1], the concentration for a half-maximal effect (EC50) is over 10000 nM.

As for `O=C(Nc1ccc(-n2nc3c4cccc(F)c4[nH]cc-3c2=O)cc1)c1ncoc1-c1ccccc1` [Example 15], the EC50 reads like this: under setting [1], 1000 to 10000 nM; (read-out: EC50) 8000 nM.
